PubChem BioAssay (NCI)
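These data come from cells grown in 96-well plates and exposed to compound for 48 hours at five concentrations. TGI marks complete inhibition of growth.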

Legend:
Test in all cases: inhibition of tumour cell growth, NCI panel, 48 h
[1] = test system: KM20L2 colon
[2] = test system: CCRF-CEM leukemia
[3] = test system: OVCAR-8 ovarian
[4] = test system: OVCAR-5 ovarian
[5] = test system: MALME-3M melanoma
[6] = test system: UO-31 renal
[7] = test system: XF 498 CNS
[8] = test system: SNB-78 CNS
[9] = test system: SK-MEL-2 melanoma
[10] = test system: SF-268 CNS
[11] = test system: HL-60(TB) leukemia
[12] = test system: ACHN renal
[13] = test system: SNB-75 CNS
[14] = test system: A498 renal
[15] = test system: SK-OV-3 ovarian
[16] = test system: OVCAR-4 ovarian
[17] = test system: EKVX NSCLC
[18] = test system: KM12 colon
[19] = test system: TK-10 renal
[20] = test system: NCI-H23 lung
[21] = test system: UACC-62 melanoma
[22] = test system: U251 CNS
[23] = test system: NCI-H522 lung
[24] = test system: RXF-631 renal
[25] = test system: SW-620 colon
[26] = test system: SNB-19 CNS
[27] = test system: K-562 leukemia
[28] = test system: LXFL 529 NSCLC
[29] = test system: RPMI-8226 leukemia
[30] = test system: SF-539 CNS
[31] = test system: SK-MEL-28 melanoma
[32] = test system: IGROV1 ovarian
[33] = test system: NCI-H460 lung
[34] = test system: HOP-18 NSCLC
[35] = test system: LOX IMVI melanoma
[36] = test system: UACC-257 melanoma
[37] = test system: HCT-116 colon
[38] = test system: HCT-15 colon
[39] = test system: 786-0 renal
[40] = test system: SF-295 CNS
[41] = test system: RXF 393 renal
[42] = test system: M19-MEL melanoma
[43] = test system: SK-MEL-5 melanoma
[44] = test system: SN12C renal
[45] = test system: MOLT-4 leukemia
[46] = test system: SR leukemia
[47] = test system: DLD-1 colon
[48] = test system: HOP-62 NSCLC
[49] = test system: CAKI-1 renal
[50] = test system: HT29 colon
[51] = test system: M14 melanoma
[52] = test system: DMS 114 small cell lung
[53] = test system: A549 NSCLC
[54] = test system: DMS 273 small cell lung
[55] = test system: HCC-2998 colon
[56] = test system: NCI-H226 lung
[57] = test system: COLO 205 colon
[58] = test system: HOP-92 NSCLC
[59] = test system: OVCAR-3 ovarian

SMILES: CN(C)c1ccc(Cc2cc(C(C)(C)C)cc(C(C)(C)C)c2O)cc1
- TGI [1]: 40.4 µM
- TGI [2]: > 100 µM
- TGI [3]: 42 µM
- TGI [4]: 18.5 µM
- TGI [5]: 53 µM
- TGI [6]: 32.7 µM
- TGI [7]: 36.5 µM
- TGI [8]: 37.4 µM
- TGI [9]: 20.1 µM
- TGI [10]: 35.6 µM
- TGI [11]: > 100 µM
- TGI [12]: 33.2 µM
- TGI [13]: 79.6 µM
- TGI [14]: 34 µM
- TGI [15]: 74.5 µM
- TGI [16]: 82.7 µM
- TGI [17]: 46.4 µM
- TGI [18]: 24.6 µM
- TGI [19]: 27.1 µM
- TGI [20]: 33.3 µM
- TGI [21]: 30.2 µM
- TGI [22]: 30.1 µM
- TGI [23]: 37 µM
- TGI [24]: 36.3 µM
- TGI [25]: 30.6 µM
- TGI [26]: 47.1 µM
- TGI [27]: 26.2 µM
- TGI [28]: 39.4 µM
- TGI [29]: 27.8 µM
- TGI [30]: 43.1 µM
- TGI [31]: 42.6 µM
- TGI [32]: 47.8 µM
- TGI [33]: 37.5 µM
- TGI [34]: 80.5 µM
- TGI [35]: 22.3 µM
- TGI [36]: 34.9 µM
- TGI [37]: 26 µM
- TGI [38]: 34.3 µM
- TGI [39]: 33.8 µM
- TGI [40]: 35.6 µM
- TGI [41]: 30.8 µM
- TGI [42]: 49.4 µM
- TGI [43]: 29.5 µM
- TGI [44]: 30.2 µM
- TGI [45]: 31.5 µM
- TGI [46]: 33.8 µM
- TGI [47]: > 100 µM
- TGI [48]: 37.2 µM
- TGI [49]: 39.6 µM
- TGI [50]: 31.1 µM
- TGI [51]: 41.7 µM
- TGI [52]: 28.6 µM
- TGI [53]: 73.6 µM
- TGI [54]: 34 µM
- TGI [55]: 35.5 µM

SMILES: O=S(=O)(N/N=C/c1c(Cl)cccc1Cl)c1ccccc1
- TGI [1]: > 100 µM
- TGI [2]: > 100 µM
- TGI [3]: > 100 µM
- TGI [4]: > 100 µM
- TGI [5]: > 100 µM
- TGI [6]: > 100 µM
- TGI [7]: > 100 µM
- TGI [8]: > 100 µM
- TGI [9]: > 100 µM
- TGI [10]: > 100 µM
- TGI [11]: 70.8 µM
- TGI [13]: > 100 µM
- TGI [14]: > 100 µM
- TGI [15]: > 100 µM
- TGI [16]: > 100 µM
- TGI [17]: > 100 µM
- TGI [18]: > 100 µM
- TGI [19]: > 100 µM
- TGI [20]: > 100 µM
- TGI [56]: > 100 µM
- TGI [57]: > 100 µM
- TGI [58]: > 100 µM
- TGI [21]: > 100 µM
- TGI [22]: > 100 µM
- TGI [24]: > 100 µM
- TGI [25]: > 100 µM
- TGI [27]: > 100 µM
- TGI [28]: > 100 µM
- TGI [29]: > 100 µM
- TGI [30]: > 100 µM
- TGI [31]: > 100 µM
- TGI [32]: > 100 µM
- TGI [33]: > 100 µM
- TGI [34]: > 100 µM
- TGI [35]: > 100 µM
- TGI [36]: > 100 µM
- TGI [59]: > 100 µM
- TGI [37]: > 100 µM
- TGI [38]: > 100 µM
- TGI [40]: > 100 µM
- TGI [41]: > 100 µM
- TGI [42]: > 100 µM
- TGI [43]: > 100 µM
- TGI [44]: > 100 µM
- TGI [45]: > 100 µM
- TGI [46]: > 100 µM
- TGI [47]: > 100 µM
- TGI [48]: > 100 µM
- TGI [50]: > 100 µM
- TGI [51]: > 100 µM
- TGI [52]: > 100 µM
- TGI [53]: > 100 µM
- TGI [54]: > 100 µM
- TGI [55]: > 100 µM
